Usually LD50 stands for the dose expected to kill half of the subjects tested. A higher LD50 goes with lower toxicity.

The test system of data set [1] is serotonin release, human blood platelets. The data set can be described thus: Serotonin release from human blood platelets. Type of data set: cell-based. As to conditions: Platelet, product concentration 5 × 10^-5 moles per liter, relative to controls, read-out: Percent of increased serotonin release. The protocol: "Platelets Function and Thrombosis, a Review of Methods" p.
The action of the products on serotonin release is tested at a concentration of 5×10^-5 moles per liter.

The test system of data set [2] is serotonin uptake, human blood platelets. As to the kind of experiment: Inhibition of serotonin uptake by human blood platelets. The class given is cell-based. As to conditions: Platelet, read-out: Inhibition of serotonin uptake I50. The source says: It is known that serotonin uptake by the blood platelets is a good model of the uptake of this amine by the neurons (cf. J. Tuomisto, J. Pharm., Pharmac., 26, 92 (1974). When applied to the study of medicaments, a method involving the use of blood platelets is of great interest because it allows the use of human cells so that its anticipation character is good.
The capacity of products to inhibit serotonin uptake or to induce serotonin release, was shown on human blood platelets, according to J. L. David and Coll. "Platelets Function and Thrombosis, a Review of Methods" p. 335 (Plenum Press, London, 1972).
1. Inhibition of Serotonin uptake
The results are expressed by a 50% inhibiting dose or I50 which represents the product dose, in micromoles per liter, which reduces the rate of serotonin uptake by 50%.

Data set [3] in a line: Acute oral toxicity in male CD1 mice. As to conditions: mouse, in vivo, 3 days of observation. The protocol: The acute toxicity of the products has been established in the male CD1 (Charles RIVER) mice following oral administration. The LD50 calculated following 3 days of observation by the cumulative method of J. J. Reed and Coll. (Am. J. Hyg. 27, 493-1938) is 600 mg/kg for compounds of Examples 1 and 2 and about 400 mg/kg for the compound of Example 4.

Molecules are shown by their SMILES. Like-named read-outs stand apart in the source and are kept apart here.

On to `CN(C)CCCN1c2ccccc2CCc2ccccc21` [Imipramine, imipramine, reference compound], for which the activation at 50 µM in data set [1] was determined as 13%. Moreover, the IC50 in data set [2] (Homo sapiens) was found to be 400 nM.

With `c1ccc2c(CCC3CCNCC3)c[nH]c2c1` [Indalpine, 3-[2-(4-piperidyl)-ethyl]-indole, reference compound], the activation at 50 µM in data set [1] amounted to 22%. For the same molecule, the IC50 in data set [2] (human blood platelets, dose reducing the rate of serotonin uptake by 50%) is 35 nM.

For `C1=C(CCc2c[nH]c3ccccc23)CCNC1` [Example 1, 3-[2-(1,2,5,6-tetrahydro-4-pyridyl)-ethyl]-indole], in data set [1], the activation at 50 µM is 85%. The molecule also had an LD50 at 72 h in data set [3] of 600 mg/kg. In addition, the IC50 in data set [2] (Homo sapiens) worked out at 55 nM.

Consider `CC(Cc1c[nH]c2ccccc12)C1CCNCC1` (stereo not drawn) [Example 4, 3-[2-(4-piperidyl)-2-methyl-ethyl]-indole], for which, in data set [1], the activation at 50 µM came out at 76%. Moreover, in data set [3], the LD50 at 72 h is approximately 400 mg/kg. Also, the IC50 in data set [2] (Homo sapiens) is 10 nM.

Turning to `CC(Cc1c[nH]c2ccccc12)C1=CCNCC1` (stereo not drawn) [Example 2, 3-[2-(1,2,5,6-tetrahydro-4-pyridyl)-2-methyl-ethyl]-indole], the activation at 50 µM in data set [1] was determined as 68%. In data set [3], this molecule displayed an LD50 at 72 h of 600 mg/kg. Besides, the IC50 in data set [2] (Homo sapiens) came out at 40 nM.

For `CC(N)Cc1ccc(Cl)cc1` (stereo not drawn) [p-chloro-amphetamine, p-chloroamphetamine, reference compound], the activation at 50 µM in data set [1] is 51%. For the same molecule, the IC50 in data set [2] (Homo sapiens) was determined as 12000 nM.

Source of the values: patent US4478841A, “3-[2-(Tetra- and Hexa- hydro-4-pyridyl)-ethyl]-indoles and their use as medicaments” (Pharmuka Laboratoires, priority 1981, dated 1984).
